Assay results reported in US20230293677A1 (priority 2020, published 2023).
Where two headings read alike, the source gives them in different places.

Columns and labels:
[1] = system: Cowpox virus (CP), Pumenok strain; set-up: species or system outbred male mice; details: mouse, in vivo
[2] = system: Herpes simplex virus (HSV) of type 1, US strain; test: Herpetic infection model in irradiated mice, survival after immunization; assay type: in vivo, outbred mice; details: for Number of dead animals, % / Number of survived animals, %: 2.5 LD50 s.c.
[3] = system: antigens of the VVE virus; set-up: species or system white outbred male mice; details: mouse, in vivo
[4] = system: virus of Venezuelan equine encephalomyelitis, strain Trinidad; set-up: species or system outbred male mice; details: mouse, in vivo
[5] = system: botulinum toxin of type A; set-up: species or system guinea pigs; details: guinea pig, in vivo
smallpox antigens = system: smallpox antigens; set-up: species or system white outbred male mice; details: mouse, in vivo
[6] = system: botulinum toxin of type A; set-up: species or system white mice; details: mouse, in vivo
[7] = adjuvant 150 μg/individual i.m. 3, 2, 1 days before

Nc1cccc2c([O-])nnc([O-])c12.[Na+].[Na+] [Abidov's adjuvant, sodium salt of 5-amino-1,2,3,4-tetrahydrophthalazine-1,4-dione]
adjuvant effect in relation to SLDV [1]: not possible to identify a pronounced adjuvant effect | effect on the formation of specific orthopoxvirus immunity [1]: no negative effect | Number of dead animals, % [2, 7]: 70% | Number of survived animals, % [2, 7]: 30% | Number of dead animals, % ([2]; only adjuvant, single dose): 80% | Number of survived animals, % ([2]; only adjuvant, single dose): 20% | increase of the effectiveness of IMP ([2]; adjuvant used in immunization schemes with herpetic vaccine): 30% | increase in the level of positive seroconversions compared with animals vaccinated only with VVE [3]: 30% | survival rate of infected mice [4]: 60-100% | Survival rate, M (M − tm − M + tm), % [5]: 0% | increase in the titer of specific anti-smallpox antibodies compared with animals vaccinated with only SLDV (smallpox antigens): 4 times | Survival rate, M (M − tm − M + tm), % [6]: 0%
